Source: publication PMC8844836 (Journal of molecular neuroscience : MN, 2020)
Entries after “also recorded” stand apart in the source; their conditions may differ.

Experiments:
[1] = tested on: Calu-3 cells; assay: Clonogenic assay, Calu-3 cells; format: cell-based
[2] = tested on: NSCLC cells; assay: Proliferation of NSCLC cells; format: cell-based
[3] = tested on: HER3; assay: HER3 tyrosine phosphorylation, Western blot, Calu-3 cells; format: cell-based; settings: for effect of ROS inhibitors on HER3 transactivation, statistics: Fig. 4B, mean ± S.D. of 3 experiments, relative to PACAP by ANOVA; for effect of ROS inhibitors on PACAP-induced HER3 tyrosine phosphorylation: Western blot (Fig. 4A), 3 experiments
[4] = tested on: EGFR; settings: NSCLC cells ref Moody et al., 2019; cited from earlier work
[5] = tested on: HER2; settings: NSCLC cells ref Moody et al., 2019; cited from earlier work
[6] = tested on: ERK; assay: ERK phosphorylation, Western blot, Calu-3 cells; format: cell-based
[7] = tested on: HER3; assay: HER3 tyrosine phosphorylation, NSCLC cells; format: cell-based
[8] = tested on: HER3; settings: NSCLC cells ref Lee et al., 2020; cited from earlier work
[9] = molecular target: T1, PAC1 (Calu-3 cells) (Homo sapiens, UniProt P41586); assay: cell-based
T1 sequence (P41586 21-468): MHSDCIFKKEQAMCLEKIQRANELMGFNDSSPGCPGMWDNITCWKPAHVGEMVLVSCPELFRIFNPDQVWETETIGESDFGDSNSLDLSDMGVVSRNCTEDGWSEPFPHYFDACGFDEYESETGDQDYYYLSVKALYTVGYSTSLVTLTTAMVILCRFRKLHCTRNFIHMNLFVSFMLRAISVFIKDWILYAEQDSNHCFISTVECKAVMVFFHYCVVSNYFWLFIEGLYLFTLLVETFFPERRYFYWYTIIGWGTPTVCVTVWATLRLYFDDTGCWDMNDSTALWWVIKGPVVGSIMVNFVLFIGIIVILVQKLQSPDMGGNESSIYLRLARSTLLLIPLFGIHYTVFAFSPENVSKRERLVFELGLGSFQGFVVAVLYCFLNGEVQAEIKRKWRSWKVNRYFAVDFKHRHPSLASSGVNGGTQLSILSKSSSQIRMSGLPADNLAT

COc1cc2ncnc(Nc3ccc(F)c(Cl)c3)c2cc1OCCCN1CCOCC1 [gefitinib]
effect on PACAP-27-induced increase in colony number ([1]; 100 nM PACAP-27): impaired | Colony number, + PACAP ([1]; with 100 nM PACAP-27, PACAP(6–38) 5 μM, gefitinib 1 μM, trastuzumab 0.1 μg/ml, mAb3481 0.1 μg/ml, mean ± S.D. of 3 determinations): 43 ± 5 | proliferation of NSCLC cells [2]: inhibited proliferation

O=S(=O)(O)c1cc(O)c(O)c(S(=O)(=O)O)c1 [Tiron]
effect of ROS inhibitors on HER3 transactivation, statistics [3]: significantly impair | effect of ROS inhibitors on HER3 transactivation, statistics ([3]; listed as Tir): impaired significantly | effect of ROS inhibitors on PACAP-induced HER3 tyrosine phosphorylation [3]: strongly inhibited | effect on PACAP-induced EGFR tyrosine phosphorylation (ROS inhibitors) [4]: inhibited | effect on PACAP-induced HER2 tyrosine phosphorylation (ROS inhibitors) [5]: inhibited

CC(=O)N[C@@H](CS)C(=O)O [N-acetyl cysteine]
effect of ROS inhibitors on HER3 transactivation, statistics ([3]; listed as NAC): significantly impair; also recorded: impaired significantly | effect of ROS inhibitors on PACAP-induced HER3 tyrosine phosphorylation [3]: strongly inhibited | effect on PACAP-induced EGFR tyrosine phosphorylation (ROS inhibitors) [4]: inhibited | effect on PACAP-induced HER2 tyrosine phosphorylation (ROS inhibitors) [5]: inhibited

neuregulin (NRG)-1 [NRG-1]
HER3 phosphorylation, 5, 10 and 30 min ([3]; Calu-3, PACAP-27 1000 nM or NRG-1 1 μg/ml, 5, 10 and 30 min): moderate | HER3 phosphorylation, 2 min ([3]; Calu-3, PACAP-27 1000 nM or NRG-1 1 μg/ml, 2 min): weakly stimulates | HER3 phosphorylation, densitometry statistics, 2, 5, 10 and 30 min ([3]; Fig. 2D, NRG-1 1 μg/ml, Calu-3, 2, 5, 10 and 30 min): significantly increased | ERK phosphorylation, densitometry statistics, 2, 5, 10 and 30 min ([6]; Fig. 2D, NRG-1 1 μg/ml, 2, 5, 10 and 30 min): significantly increased | ERK phosphorylation, 5, 10 and 30 min ([6]; PACAP-27 1000 nM or NRG-1 1 μg/ml, 5, 10 and 30 min): moderate | ERK phosphorylation, 2 min ([6]; PACAP-27 1000 nM or NRG-1 1 μg/ml, 2 min): weakly stimulates | increase in colony number ([1]; NRG-1 0.1 μg/ml, PACAP-27 100 nM, 2 weeks): 33% | proliferation of NSCLC cells [2]: increased the proliferation | HER3 tyrosine phosphorylation, NSCLC cells [7]: increased HER3 tyrosine phosphorylation

c1ccc2c(c1)[I+]c1ccccc1-2 [DPI, diphenylene iodonium]
effect of ROS inhibitors on HER3 transactivation, statistics [3]: not DPI impaired significantly | effect of ROS inhibitors on PACAP-induced HER3 tyrosine phosphorylation [3]: weakly | effect on PACAP-induced EGFR tyrosine phosphorylation (ROS inhibitors) [4]: inhibited | effect on PACAP-induced HER2 tyrosine phosphorylation (ROS inhibitors) [5]: inhibited

Bombesin
HER3 tyrosine phosphorylation [8]: increases HER3 tyrosine phosphorylation

CSCC[C@H](NC(=O)[C@H](CCC(N)=O)NC(=O)[C@H](CCCCN)NC(=O)[C@H](CCCNC(=N)N)NC(=O)[C@H](Cc1ccc(O)cc1)NC(=O)[C@H](CCCNC(=N)N)NC(=O)[C@H](CO)NC(=O)[C@H](Cc1ccc(O)cc1)NC(=O)[C@H](CO)NC(=O)[C@H](CC(=O)O)NC(=O)[C@@H](NC(=O)[C@@H](N)Cc1ccccc1)[C@@H](C)O)C(=O)N[C@@H](C)C(=O)N[C@H](C(=O)N[C@@H](CCCCN)C(=O)N[C@@H](CCCCN)C(=O)N[C@@H](Cc1ccc(O)cc1)C(=O)N[C@@H](CC(C)C)C(=O)N[C@@H](C)C(=O)N[C@@H](C)C(=O)N[C@H](C(=O)N[C@@H](CC(C)C)C(=O)NCC(=O)N[C@@H](CCCCN)C(=O)N[C@@H](CCCNC(=N)N)C(=O)N[C@@H](Cc1ccc(O)cc1)C(=O)N[C@@H](CCCCN)C(=O)N[C@@H](CCC(N)=O)C(=O)N[C@@H](CCCNC(=N)N)C(=O)N[C@H](C(=O)N[C@@H](CCCCN)C(=O)N[C@@H](CC(N)=O)C(=O)N[C@@H](CCCCN)C(N)=O)C(C)C)C(C)C)C(C)C [PACAP(6–38)]
IC50 [9]: 31.4 ± 4.9 nM
